Laboratory results published in US9629822B2, “Flavonoid based antiviral targets” (UNIVERSITY OF CENTRAL FLORIDA RESEARCH FOUNDATION, INC., priority 2012, dated 2017).
Like-named read-outs stand apart in the source and are kept apart here.

Tests used:
[1] = TZMbI assay for cell safety (cell viability and growth, CytoTox Glo); conditions: human, TZMbI cells, 10 μM, Experiment 1A; read-out: % decrease in viability compared to 0.1% DMSO vehicle based on viable cell luminescence
Experimental: Assays were performed below in accordance with the procedures set forth in The Journal of Immunology, 2006, 176, pp. 6900-905; AIDS Research and Human Retroviruses, 2004, 20:11, pp. 1157-1665.^32,33 TZMbI assays for cell safety were performed to identify potential anti-viral compounds. TZMbI assays for cell safety were performed to identify potential anti-viral compounds per the methods.

[2] = system: CHO cells; experiment: CHO cell toxicity, MTS assay, 48 h; format: cell-based, Chinese hamster; conditions: Cricetulus griseus, CHO, 37° C., MTS reagent, read-out: CHO 48 h IC50 value
How it was run: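 CHO cells plated at 10,000 cells/mL, incubated overnight, then exposed to drug (final DMSO <1%) for 48 h at 37 °C, 5% CO2, in triplicate. MTS added for a further 4 h; absorbance read at 490 nm. IC50 taken from relative A490 versus drug concentration.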

[3] = system: mock transfected 293T HEK cells; experiment: PathDetect Elk1 luminescence in mock transfected (empty pcDNA3 vector) 293T HEK cells, off-target effect; format: cell-based, human; conditions: 10 μM vs 1% DMSO control, Equation 1; for activation at 10 µM: Homo sapiens, read-out: Effect(%) on mock cells with each drug at 10 μM
How it was run: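 HEK 293T cells were transiently transfected with PathDetect Elk1/luciferase and empty pcDNA3, then exposed to 10 μM compound in medium with 1% FBS and 1% DMSO for 20-24 h at 37 °C. BrightGlo luminescence was compared with the 1% DMSO control: % effect = 100%×(mock/DMSO) − 100%.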

[4] = system: HIV-1 BaL; experiment: Anti-HIV assay (luciferase, HIV-1 BaL infection); format: cell-based; conditions: 10 μM, Experiment 1B, 2 ng/mL p24 HIV-1 BaL; for inhibition at 10 µM: Human immunodeficiency virus 1, BAL
How it was run: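 Cells infected with HIV-1 BaL at 2 ng/mL p24 (MOI approx 0.02) in compound presence. Infection read out by luciferase.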

[5] = target: T1, US28 receptor (Human cytomegalovirus, UniProt P69332); experiment: PathDetect trans Elk1 luciferase reporter gene assay in US28-transfected 293T HEK cells; format: cell-based, Human Cytomegalovirus (HCMV); conditions: for EC50: 293T HEK cells transiently expressing US28, Elk1 reporter, NE = no effect when tested at 10 μM of compound; for Emax: read-out: Efficacy(%), maximum intrinsic activity from dose-response curve
T1 construct: expressed in transfected cells; host or cells: HEK 293T cells, transiently transfected
T1 sequence (P69332 whole entry): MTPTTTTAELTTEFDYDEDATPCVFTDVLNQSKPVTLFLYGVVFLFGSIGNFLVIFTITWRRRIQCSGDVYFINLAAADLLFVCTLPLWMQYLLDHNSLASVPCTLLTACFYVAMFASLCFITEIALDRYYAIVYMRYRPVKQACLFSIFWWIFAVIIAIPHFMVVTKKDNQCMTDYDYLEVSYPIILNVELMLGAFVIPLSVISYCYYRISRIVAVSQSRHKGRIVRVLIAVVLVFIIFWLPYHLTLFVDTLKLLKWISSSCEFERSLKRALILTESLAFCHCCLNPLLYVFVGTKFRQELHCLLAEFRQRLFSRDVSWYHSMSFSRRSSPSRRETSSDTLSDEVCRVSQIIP
How it was run: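 HEK293T cells transiently transfected with Elk1, Luc and US28 vector (empty pcDNA3 for mock) were dosed with compounds in DMEM/1% FBS with 1% DMSO for 20-24 h at 37° C. Bright-Glo luminescence decrease was read; EC50 is halfway between maximal response and no-compound control, by non-linear regression.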

[6] = target: T1, US28 receptor; conditions: same Elk1 reporter assay, from ref 13; cited from earlier work

Row | Structure (SMILES) | melting point | cytotoxicity at 10 μM [1] | IC50 [2] | activation at 10 µM [3] | RLU (relative luciferase units) [4] | inhibition at 10 µM [4] | EC50 ([5]; EC50 (μM)) | Emax ([5]; negative = inverse agonism) | type of activity on the US28 receptor (agonist / inverse agonist / none), in words ([5]; Elk1 reporter, US28-transfected HEK cells) | Emax at 10 µM ([5]; read-out: Efficacy(%), 10 μM single concentration) | EC50 [5] | EC50 [6] | efficacy [6] | Effect(%) on mock cells with each drug at 10 μM [3] | Efficacy(%) ([5]; maximum intrinsic activity from dose-response curve, negative = inverse agonism)
1 | COc1cc(OC)c(/C=C/C(=O)c2ccccc2O)cc1Br [Compound 8e, (E)-3-(5-bromo-2,4-dimethoxyphenyl)-1-(2-hydroxyphenyl)prop-2-en-1-one] | 153 to 157 °C | 4.1% | 16.9 ± 1.3 µM | 5% | 671.4 RLU | 29% | 4.9 µM | ~55% |  |  |  |  |  |  | 
2 | COc1ccc(C)cc1/C=C/C(=O)c1ccccc1O [Compound 8j, (E)-1-(2-hydroxyphenyl)-3-(2-methoxy-5-methylphenyl)prop-2-en-1-one] | 69 to 72 °C | 47% | 14.2 ± 2.7 µM | -4% | 345.7 RLU | 63.1% |  |  | agonist activity | 52% |  |  |  |  | 
3 | COc1ccc(I)cc1-c1oc2ccccc2c(=O)c1O [Compound 9g, 3-Hydroxy-2-(5-iodo-2-methoxyphenyl)-4H-chromen-4-one] | 153 to 159 °C | 15.3% | 17.9 ± 1.6 µM | -23% | 358.6 RLU | 61.7% |  |  |  |  | > 10 µM |  |  |  | 
4 | N#CC(CCCN1CCC(O)(c2ccc(Cl)cc2)CC1)(c1ccccc1)c1ccccc1 [Compound 5a, VUF2274] |  |  |  |  |  |  |  |  |  |  |  | 4.5 µM | ~22% |  | 
5 | COc1ccc(I)cc1/C=C/C(=O)c1ccccc1O [Compound 8g, (E)-1-(2-hydroxyphenyl)-3-(5-iodo-2-methoxyphenyl)prop-2-en-1-one] | 107 to 109 °C | 99.7% | 6.7 ± 0.7 µM | 100% | 3.3 RLU | 99.6% | 5.5 µM | ~94% |  |  |  |  |  | 100% | ~94%
6 | COc1ccc(Br)cc1-c1oc2cccc(OC)c2c(=O)c1O [Compound 9f, 2-(5-Bromo-2-methoxyphenyl)-3-hydroxy-5-methoxy-4H-chromen-4-one] | 207 to 213 °C | -0.2% | 17.3 ± 1.9 µM | -1% | 528.5 RLU | 43.6% |  |  |  |  | > 10 µM |  |  |  | 
